Results from patent publication US12570661B2, “Isoform-specific aldehyde dehydrogenase inhibitors” (The Board of Trustees of the Leland Stanford Junior …, priority 2020, dated 2026).
Read-outs that look alike come from different tables or passages of the source. Each block holds one molecule with its values, some of them ahead of it.

How the values were obtained:
SW480 cells (adherent) = assay: Cell viability assay, adherent SW480 cultures; assay type: cell-based, human; conditions: adherent culture, 7 days
Procedure: (§1) SW480 or HCT116 cells were seeded into regular or Matrigel-coated 96-well plates at a density of 1000 cells/well. The cells were cultured in the corresponding adherent or spheroid culture medium (200 μL/well) containing the designated compounds or an equivalent amount of DMSO vehicle. Each culture was maintained for 7 days, and then cell viabilities were measured using a CellTiter-Glo 3D Cell Viability Assay kit (Promega). Briefly, 100 μL of the culture medium was removed from each well and replaced with 100 μL 3D Cell Assay reagent. The cells in each well were next homogenized by vigorous pipetting, and the plate was incubated for 10 min at room temperature to stabilize the chemiluminescent signal. A 150-μL aliquot from each well was then transferred into a white opaque 96-well assay plate (flat-bottom and non-treated; Corning Costar) and luminescence intensities were measured with a Veritas microplate luminometer (Turner BioSystems).

SW480 cells (spheroid) = assay: Matrigel spheroid growth / viability assay, SW480; assay type: cell-based; conditions: Matrigel spheroid culture, 7 days, read-out: Spheroid SW480 GI50
Procedure: To prepare Matrigel-coated culture plates, 96-well and 24-well plates were placed on ice and coated with 25 μL or 300 μL, respectively, of Matrigel matrix (Corning, LDEV-free) that had been thawed overnight at 4° C. The plates were then placed in a 37° C. incubator for 30 min to allow the Matrigel to solidify. SW480 or HCT116 cells were suspended in spheroid culture medium (RPMI-1640 containing 20 ng/mL recombinant human epidermal growth factor (Abcam, ab9697), 20 ng/mL recombinant human fibroblast growth factor (BioVision, 4037), 5 μg/mL heparin (Sigma), 1× N-2 supplement (Thermo Fisher Scientific), 100 U/mL penicillin, and 100 μg/mL streptomycin) and then seeded into the 96-well and 24-well Matrigel-coated plates at densities of 1,000 or 5,000 cells/well and total well volumes of […] or 1 mL, respectively. Compounds were diluted in spheroid culture medium and added to the wells, and the spheroid were grown at 37° C. with 5% CO2 for 7 days.
To quantify spheroid growth at the 7-day endpoint, unstained spheroids were imaged with phase-contrast illumination using a Keyence BZ-X710 microscope. Some cultures were also stained with crystal violet to enable brightfield imaging. Briefly, the Matrigel spheroids cultures were treated with PBS containing 0.5% crystal violet and 5% methanol for 15 min at 37° C. and then gently washed 4×5 min with PBS. Spheroid sizes were quantified with ImageJ (Fiji) software using masks created with the default “Threshold” function and foreground/background adjustments to optimize masking fidelity. The full field of view was then selected for “Analyze Particles” analysis, providing numbered list of each spheroid and its area in the micrograph. In the few cases that two adjacent spheroids were treated as one object by the image processing software, their measurements were manually corrected using the “Freehand Selections” tool. To exclude background and debris from dead cells, spheroids with areas less than 500 μm^2 were excluded from the image analyses.
as §1

ALDH1B1 [1] = target: T1, ALDH1B1 (Homo sapiens, UniProt P30837); assay: ALDH1B1 enzyme kinetics assay (NADH fluorescence, acetaldehyde substrate); assay type: biochemical; set-up: made in house; host or cells: E. coli BL21 (optionally co-expressed with GroEL/GroES); conditions: for IC50: 1 μg/mL enzyme, 1 mM acetaldehyde, 1 mM NAD+, read-out: ALDH1B1(in vitro) IC50
T1 sequence (P30837 18-517): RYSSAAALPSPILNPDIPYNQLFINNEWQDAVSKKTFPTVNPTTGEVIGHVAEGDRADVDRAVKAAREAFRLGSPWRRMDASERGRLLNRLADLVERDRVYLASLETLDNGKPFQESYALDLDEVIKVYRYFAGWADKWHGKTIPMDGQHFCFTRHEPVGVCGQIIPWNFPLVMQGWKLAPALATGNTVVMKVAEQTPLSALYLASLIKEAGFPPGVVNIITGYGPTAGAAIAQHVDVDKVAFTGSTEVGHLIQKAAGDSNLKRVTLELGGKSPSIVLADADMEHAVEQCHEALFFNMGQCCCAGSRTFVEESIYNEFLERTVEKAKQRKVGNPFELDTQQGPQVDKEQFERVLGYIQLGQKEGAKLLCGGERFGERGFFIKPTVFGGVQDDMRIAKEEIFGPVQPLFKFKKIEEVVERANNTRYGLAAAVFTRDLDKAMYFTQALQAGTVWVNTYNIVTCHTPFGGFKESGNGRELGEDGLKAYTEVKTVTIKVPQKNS
Procedure: Cloning, expression, and purification of human recombinant ALDH1A1, ALDH1A3, ALDH2, ALDH3A1, ALDH3A2, ALDH4A1, ALDH5A1 and ALDH7A1 isozymes were conducted as described previously (Chen, C. H. et al. (2015) Proc. Natl. Acad. Sci. U.S.A. 112, 3074-3079). Human ALDH1A2 (Origene, SC109995) and ALDH1B1 (T. Hurley, Indiana University) plasmids were cloned into the pET-15b expression vector (Novagen, 69661-3) containing an N-terminal hexahistidine tag. The mitochondria-targeting sequence of ALDH1B1 was also removed. For protein expression without chaperones, the pET-15b based plasmids were transformed into competent BL21 E. coli cells, which were subsequently grown in 1 L of Luria-Bertani medium containing 100 μg/mL ampicillin at 37° C. Once the OD600 value reached 0.6, the culture was transferred to 16° C. and 0.5 mM isopropyl β-d-1-thiogalactopyranoside was introduced to induce protein expression overnight. The bacteria were then pelleted by centrifugation (3000×g, 4° C. for 30 rain) and harvested. 40 mL BugBuster Master Mix buffer (MilliporeSigrna) containing a protease inhibitor cocktail (cOmplete; Roche) was added, and the cells were lysed by mechanically rolling the suspension at room temperature for 25 min. The lysate was centrifuged (16000×g, 4° C. for 30 min), and the soluble fraction was collected and mixed with 2 mL of Ni-NTA Superflow resin (Qiagen). After the mixture was avowed to rock at 4° C. for 1 h, it was used to create a 10-mL gravity column, which was sequentially treated with 40 mL of wash buffer 1 (20 mM sodium phosphate, 500 mM NaCl, 1 mM DTT, 20 mM imidazole, 5% glycerol, pH 7.4) and 25 mL of wash buffer 2 (20 mM sodium phosphate, 500 mM NaCl, 1 mM DTT, 40 mM imidazole, 5% glycerol, pH 7.4). The hexahistidine-tagged protein was then recovered by treated the column with 5 mL elution buffer (20 mM sodium phosphate, 500 mM NaCl, 1 mM DTT, 400 mM imidazole, 5% glycerol, pH 7.4) and collecting 500-μL fractions. The protein concentration for each fraction was measured (500 μL elution volume was collected as one fraction and was immediately mixed with 500 μL glycerol. The protein concentration for each fraction was measured (600 nm Protein Assay Reagent; Thermo Fisher Scientific), and protein-containing fractions were diluted with an equal volume of glycerol and stored at −80° C. Samples from each step were also collected for SDS-PAGE gel analysis. For ALDH1B1 protein co-expression with chaperones, pET-15b-ALDH1B1 and GroEL/GroES (Addgene, plasmid pBB541) plasmids were co-transformed into competent BL21 E. coli cells, which were subsequently grown in 1 L of Luria-Bertani medium containing 100 μg/mL ampicillin and 50 μg/mL spectinomycin at 37° C. The hexahistidine-tagged ALDH1B1 protein was then expressed and purified as described above.
To evaluate compound activities against ALDH isoforms, reaction mixtures consisting of enzyme assay buffer (100 mM sodium phosphate, 1 mM MgCl2, pH 8.0) and 0.1% DMSO, 1 mM β-mercaptoethanol, 1 mM NAD^+, and the bacterially expressed protein were prepared in white opaque 96-well assay plates (100 μL/well, flat-bottom and non-treated; Corning Costar). 5 μg/mL ALDH enzyme was used for single-dose (1, 10, 50 μM) compound test, and 1 μg/mL ALDH enzyme was used for IC50s determination. Acetaldehyde was then added to each well to achieve an initial substrate concentration of 1 mM, and the resulting enzymatic activity was measured based on NADH fluorescence. The fluorescence signal was read over the course of 10 min on a SpectraMax M2e microplate reader (340-nm excitation and 460-nm emission; Molecular Devices) operated by SoftMax Pro software. Compound activities were normalized to a DMSO control, and dose-response inhibition curves were fitted with four-parameter non-linear regression using Prism software. […]

[2] = HEK-293T cytotoxicity (cell viability) assay; assay type: cell-based; conditions: human, HEK-293T cells; adherent HEK-293T, 4-5 days, CellTiter-Glo; read-out: HEK293T GI50
Procedure: HEK-293T cells were seeded into a 96-well plate at a density of 5×10^3 cells/well and treated with varying concentrations of selected compounds or an equivalent amount of DMSO vehicle. The cells were cultured for 4-5 days without a media change, and after the DMSO-treated cells approached 100% confluence, the cell viabilities were measured using a CellTiter-Glo 3D Cell Viability Assay kit (Promega) and a Veritas microplate luminometer (Turner BioSystems) as described above.

ALDH1B1 [3] = target: T1, ALDH1B1; assay: ALDEFLUOR assay of cellular ALDH1B1 activity in ALDH1B1-transfected ALDH1A3−/− A375 cells; assay type: cell-based; conditions: for IC50: ALDEFLUOR, ALDH1B1-overexpressing ALDH1A3−/− A375 cells, read-out: ALDH1B1(in cellulo) IC50
Procedure: ALDH1A3^−/− A375 cells were seeded into a 6-well plate at a density of 5×10^5 cells/well and cultured for 24 h. The cells were then transfected with either pCMV6-entry, pCMV6-GFP (Addgene, plasmid 11153), or pCMV-ALDH1B1. After 24 h, the media was replaced and transfection efficiencies were estimated by the EGFP-positive cells in the pCMV-GFP-transfected well. The cells were cultured for another 24 h and their ALDH activities were quantified using the ALDEFLUOR assay. Briefly, the cells were isolated from the plate with trypsin and resuspended in ALDEFLUOR assay buffer (STEMCELL Technologies) at a concentration of 4×10^5 cells/mL. Each ALDEFLUOR assay used 0.5 mL of this cell suspension, and the cells were treated with individual compounds for 15 min at 37° C. and 5% CO2. The cell suspensions were then treated with 2.5 μL ALDEFLUOR reagent and incubated for an additional 30 min at 37° C. and 5% CO2. The cells were then collected by centrifugation (450×g) for 5 min at room temperature, resuspended in 200 μL assay buffer, and analyzed with an LSR II flow cytometer (BD Biosciences) at the Stanford FACS facility.

NIH-3T3 cells = assay: Seahorse oxygen-consumption-rate assay (NIH3T3); assay type: cell-based, murine; conditions: Mus musculus

Compound: COc1ccccc1C1=CN(c2ccc(-c3ccccc3)cc2)C2=NCCCN12 [Guanidine 66]
effect on ALDH1B1-dependent ALDEFLUOR signal (cellular ALDH1B1 activity) (ALDH1B1 [3]; flow cytometry): inhibits cellular ALDH1B1 activity
ALDH1B1 inhibition / isoform selectivity (in words) (ALDH1B1 [1]; enzyme kinetics assays against ALDH isoforms): ALDH1B1-selective inhibitors

Compound: CCOc1ccc(N2C=C(c3ccc(-c4ccccc4)cc3)N3CCCCN=C32)cc1 [Guanidine 73]
IC50 (NIH-3T3 cells): 2400 nM
IC50 (ALDH1B1 [3]): 6700 nM
IC50 (ALDH1B1 [1]): 1900 nM

Compound: COc1ccccc1C1=CN(c2ccc(-c3ccccc3)cc2)C2=NCCCN12 [STL5-T-0001]
GI50 (SW480 cells (adherent)): 1900 nM
GI50 (SW480 cells (spheroid)): 1500 nM
IC50 (ALDH1B1 [1]): 98 nM

Continued, in another order:

GI50 (SW480 cells (adherent); Homo sapiens, SW480, 168 h): 2700 nM
GI50 (SW480 cells (spheroid); Homo sapiens, SW480, 168 h): 440 nM
IC50 (ALDH1B1 [1]): 30 nM
Compound: COc1cc(Cl)ccc1C1=CN(c2ccc(-c3ccccc3OC)cc2)C2=NCCCN12 [STL5-T-0057]
GI50 [2]: 1700 nM

IC50 (ALDH1B1 [1]): 42 nM
Compound: COc1cc(Cl)ccc1C1=CN(c2ccc(-c3ccccc3)cc2)C2=NCCCCN12 [STL5-T-0025]
GI50 [2]: 5200 nM

IC50 (ALDH1B1 [3]): 110 nM
IC50 (ALDH1B1 [1]): 82 nM
Compound: COc1ccccc1N1C=C(c2ccc(-c3ccccc3)cc2)N2CC(C)(C)CN=C21 [HPI-279]

GI50 (SW480 cells (adherent); Homo sapiens, SW480, 168 h): 1300 nM
GI50 (SW480 cells (spheroid); Homo sapiens, SW480, 168 h): 1100 nM
IC50 (ALDH1B1 [1]): 100 nM
Compound: CCOc1ccc(C2=CN(c3ccc(-c4ccccc4OC)cc3)C3=NCCCCN23)c(OC)c1 [Guanidine 64]

IC50 (ALDH1B1 [1]): 74 nM
Compound: CCc1cc(Cl)ccc1C1=CN(c2ccc(-c3ccccc3CC)cc2)C2=NCCCN12 [STL8-T-0003]
GI50 [2]: 1300 nM
